Species on record: Rattus norvegicus
Test: DrugMatrix - Regimen: Daily Repeat
Format: toxicity, organism-based, Sprague-Dawley
Set-up: regimen Daily Repeat, gender Male, age 6-8 weeks
Conditions: in vivo, po, route oral GAVAGE, […]; for ABSOLUTE BASOPHIL / ABSOLUTE EOSINOPHIL / ABSOLUTE LYMPHOCYTE / ABSOLUTE MONOCYTE / ABSOLUTE SEGMENTED NEUTROPHIL / BASOPHIL / EOSINOPHIL / ERYTHROCYTE COUNT / HEMATOCRIT / HEMOGLOBIN / LEUKOCYTE COUNT / LYMPHOCYTE / MEAN CORPUSCULAR HEMOGLOBIN / MEAN CORPUSCULAR HEMOGLOBIN CONCENTRATION / MEAN CORPUSCULAR VOLUME / MONOCYTE / NEUTROPHIL / NUCLEATED RED BLOOD CELLS / PLATELET COUNT: tissue Blood; for ALANINE AMINOTRANSFERASE / ALBUMIN / ALKALINE PHOSPHATASE / ASPARTATE AMINOTRANSFERASE / BLOOD UREA NITROGEN / CARBON DIOXIDE / CHLORIDE / CHOLESTEROL / CREATINE PHOSPHOKINASE / CREATININE / GLUCOSE / LACTATE DEHYDROGENASE / LIPASE / PHOSPHORUS / POTASSIUM / SODIUM / TOTAL BILIRUBIN / TOTAL PROTEIN / URIC ACID: tissue Plasma
[1] = 0 mg/kg, 72 h, dose level Control, time 3 day
[2] = 0 mg/kg, 120 h, dose level Control, time 5 day
[3] = 100 mg/kg, 72 h, dose level Low, time 3 day

SMILES: CC(=O)Nc1ccc(O)cc1 [ACETAMINOPHEN]
- ABSOLUTE BASOPHIL [1]: 0 CELLS/uL
- ABSOLUTE EOSINOPHIL [1]: 0 CELLS/uL
- ABSOLUTE LYMPHOCYTE [1]: 6275.67 CELLS/uL
- ABSOLUTE MONOCYTE [1]: 40.67 CELLS/uL
- ABSOLUTE SEGMENTED NEUTROPHIL [1]: 633.67 CELLS/uL
- BASOPHIL [1]: 0%
- EOSINOPHIL [1]: 0%
- ERYTHROCYTE COUNT [1]: 5.2 x10E6/uL
- HEMATOCRIT [1]: 32.78%
- HEMOGLOBIN [1]: 12.98 G/DL
- LEUKOCYTE COUNT [1]: 6.95 x10E3/uL
- LYMPHOCYTE [1]: 90.17%
- MEAN CORPUSCULAR HEMOGLOBIN [1]: 24.97 pg
- MEAN CORPUSCULAR HEMOGLOBIN CONCENTRATION [1]: 39.62 G/DL
- MEAN CORPUSCULAR VOLUME [1]: 63.03 fL
- MONOCYTE [1]: 0.67%
- NEUTROPHIL [1]: 9.17%
- NUCLEATED RED BLOOD CELLS [1]: 0 /100WBC
- PLATELET COUNT [1]: 1082.83 x10E3/uL
- ALANINE AMINOTRANSFERASE [1]: 69.67 u/L
- ALBUMIN [1]: 4.15 G/DL
- ALKALINE PHOSPHATASE [1]: 430.5 u/L
- ASPARTATE AMINOTRANSFERASE [1]: 90.83 u/L
- BLOOD UREA NITROGEN [1]: 13 mg/dL
- CARBON DIOXIDE [1]: 33 mmol/L
- CHLORIDE [1]: 99.17 MEQ/L
- CHOLESTEROL [1]: 70.5 mg/dL
- CREATINE PHOSPHOKINASE [1]: 253.33 u/L
- CREATININE [1]: 0.13 mg/dL
- GLUCOSE [1]: 157.17 mg/dL
- LACTATE DEHYDROGENASE [1]: 85 u/L
- LIPASE [1]: 10 u/L
- PHOSPHORUS [1]: 10.2 mg/dL
- POTASSIUM [1]: 5.78 MEQ/L
- SODIUM [1]: 144.12 MEQ/L
- TOTAL BILIRUBIN [1]: 0.2 mg/dL
- TOTAL PROTEIN [1]: 5.8 G/DL
- URIC ACID [1]: 0.8 mg/dL
- ABSOLUTE BASOPHIL [2]: 0 CELLS/uL
- ABSOLUTE EOSINOPHIL [2]: 0 CELLS/uL
- ABSOLUTE LYMPHOCYTE [2]: 10431 CELLS/uL
- ABSOLUTE MONOCYTE [2]: 90.5 CELLS/uL
- ABSOLUTE SEGMENTED NEUTROPHIL [2]: 1111.83 CELLS/uL
- BASOPHIL [2]: 0%
- EOSINOPHIL [2]: 0%
- ERYTHROCYTE COUNT [2]: 5.51 x10E6/uL
- HEMATOCRIT [2]: 34.67%
- HEMOGLOBIN [2]: 13.5 G/DL
- LEUKOCYTE COUNT [2]: 11.63 x10E3/uL
- LYMPHOCYTE [2]: 89.67%
- MEAN CORPUSCULAR HEMOGLOBIN [2]: 24.5 pg
- MEAN CORPUSCULAR HEMOGLOBIN CONCENTRATION [2]: 38.95 G/DL
- MEAN CORPUSCULAR VOLUME [2]: 62.87 fL
- MONOCYTE [2]: 0.67%
- NEUTROPHIL [2]: 9.67%
- NUCLEATED RED BLOOD CELLS [2]: 0 /100WBC
- PLATELET COUNT [2]: 1052.67 x10E3/uL
- ALANINE AMINOTRANSFERASE [2]: 54.67 u/L
- ALBUMIN [2]: 4.15 G/DL
- ALKALINE PHOSPHATASE [2]: 359.83 u/L
- ASPARTATE AMINOTRANSFERASE [2]: 83 u/L
- BLOOD UREA NITROGEN [2]: 13.5 mg/dL
- CARBON DIOXIDE [2]: 27.17 mmol/L
- CHLORIDE [2]: 98.5 MEQ/L
- CHOLESTEROL [2]: 66.83 mg/dL
- CREATINE PHOSPHOKINASE [2]: 256.17 u/L
- CREATININE [2]: 0.19 mg/dL
- GLUCOSE [2]: 171.33 mg/dL
- LACTATE DEHYDROGENASE [2]: 91.5 u/L
- LIPASE [2]: 10.5 u/L
- PHOSPHORUS [2]: 8.72 mg/dL
- POTASSIUM [2]: 5.34 MEQ/L
- SODIUM [2]: 142.53 MEQ/L
- TOTAL BILIRUBIN [2]: 0.2 mg/dL
- TOTAL PROTEIN [2]: 6.05 G/DL
- URIC ACID [2]: 0.6 mg/dL
- ABSOLUTE BASOPHIL [3]: 0 CELLS/uL
- ABSOLUTE EOSINOPHIL [3]: 0 CELLS/uL
- ABSOLUTE LYMPHOCYTE [3]: 7022 CELLS/uL
- ABSOLUTE MONOCYTE [3]: 162.33 CELLS/uL
- ABSOLUTE SEGMENTED NEUTROPHIL [3]: 715.67 CELLS/uL
- BASOPHIL [3]: 0%
- EOSINOPHIL [3]: 0%
- ERYTHROCYTE COUNT [3]: 5.13 x10E6/uL
- HEMATOCRIT [3]: 32.6%
- HEMOGLOBIN [3]: 12.9 G/DL
- LEUKOCYTE COUNT [3]: 7.9 x10E3/uL
- LYMPHOCYTE [3]: 88.67%
- MEAN CORPUSCULAR HEMOGLOBIN [3]: 25.13 pg
- MEAN CORPUSCULAR HEMOGLOBIN CONCENTRATION [3]: 39.57 G/DL
- MEAN CORPUSCULAR VOLUME [3]: 63.53 fL
- MONOCYTE [3]: 2%
- NEUTROPHIL [3]: 9.33%
- NUCLEATED RED BLOOD CELLS [3]: 0 /100WBC
- PLATELET COUNT [3]: 1191.67 x10E3/uL
- ALANINE AMINOTRANSFERASE [3]: 62 u/L
- ALBUMIN [3]: 4.1 G/DL
- ALKALINE PHOSPHATASE [3]: 340 u/L
- ASPARTATE AMINOTRANSFERASE [3]: 77.67 u/L
- BLOOD UREA NITROGEN [3]: 15.33 mg/dL
- CARBON DIOXIDE [3]: 33.67 mmol/L
- CHLORIDE [3]: 98.67 MEQ/L
- CHOLESTEROL [3]: 85 mg/dL
- CREATINE PHOSPHOKINASE [3]: 201.67 u/L
- CREATININE [3]: 0.15 mg/dL
- GLUCOSE [3]: 165 mg/dL
- LACTATE DEHYDROGENASE [3]: 82.67 u/L
- LIPASE [3]: 10 u/L
- PHOSPHORUS [3]: 11 mg/dL
- POTASSIUM [3]: 5.65 MEQ/L
- SODIUM [3]: 145.13 MEQ/L
- TOTAL BILIRUBIN [3]: 0.2 mg/dL
- TOTAL PROTEIN [3]: 5.9 G/DL
- URIC ACID [3]: 0.73 mg/dL

From ChEMBL document CHEMBL3885881, “DrugMatrix”
